Experimental findings from ChEMBL document CHEMBL1126465, “Synthesis and pharmacological evaluation of nonacyclic and trisdecacyclic pyrazines related to cephalostatin” (1992) are described below.

Assay [1] concerns SK-MEL-5. The assay is described as follows: In vitro cytotoxicity against human melanoma, metastatic to auxiliary node (SK-MEL-5) at 5.1*10e-5M. The assay is classed as functional. To be noted: SK-MEL-5, read-out: ED50.
In assay [2] the test system is A549. Description: In vitro cytotoxicity against human lung carcinoma cell line A-549 at 3.6*10e-5 M. The assay is classed as functional. Conditions: A549, read-out: ED50.
The test system of assay [3] is Malme-3M. The assay is described as follows: In vitro cytotoxicity against human melanoma, metastatic to lung using MTT assay (MALME-3M) at 6.8*10e-5M. In kind it is functional.
Assay [4] deals with HT-29. The assay is described as follows: In vitro cytotoxicity against human colon adenocarcinoma cell line HT-29 at 5.7*10e-5M. In kind it is functional. To be noted: HT-29, read-out: ED50.
The subject of assay [5] is MCF7. The assay is described as follows: In vitro cytotoxicity against human breast carcinoma cell line MCF-7 at 4.4*10e-5M. To be noted: MCF7, read-out: ED50. In kind it is functional.
Assay [6] concerns HT-29. Description: In vitro cytotoxicity against human colon adenocarcinoma cell line HT-29 at 1.6*10e-5M. The assay is classed as functional. Conditions: read-out: ED50 (the source's name).
For assay [7], the system named is SK-MEL-5. Description: In vitro cytotoxicity against human melanoma, metastatic to auxiliary node (SK-MEL-5). The assay is classed as functional. To be noted: read-out: ED50 (the source's name).
For assay [8], the system named is A549. The assay is described as follows: In vitro cytotoxicity against human lung carcinoma cell line A-549 at 7.4*10e-5 M. The assay is classed as functional. To be noted: read-out: ED50 (the source's name).
For assay [9], the system named is MCF7. The assay is described as follows: In vitro cytotoxicity against human breast carcinoma cell line MCF-7 at 8.1*10e-5M. The assay is classed as functional. Conditions: read-out: ED50 (the source's name).
The subject of assay [10] is Malme-3M. Description: In vitro cytotoxicity against human melanoma, metastatic to lung using MTT assay (MALME-3M). The assay is classed as functional. Conditions: read-out: ED50 (the source's name).
The test system of assay [11] is A549. Description: In vitro cytotoxicity against human lung carcinoma cell line A-549. The assay is classed as functional. To be noted: read-out: ED50 (the source's name).
Assay [12] deals with MCF7. The assay is described as follows: In vitro cytotoxicity against human breast carcinoma cell line MCF-7. In kind it is functional. To be noted: read-out: ED50 (the source's name).
Assay [13] relates to HT-29. The assay is described as follows: In vitro cytotoxicity against human colon adenocarcinoma cell line HT-29. In kind it is functional. Conditions: read-out: ED50 (the source's name).
Assay [14] deals with HT-29. The assay is described as follows: In vitro cytotoxicity against human colon adenocarcinoma cell line HT-29 at 5.9*10e-5M. In kind it is functional. Conditions: read-out: ED50 (the source's name).
Assay [15] deals with MCF7. Description: In vitro cytotoxicity against human breast carcinoma cell line MCF-7 at 5.6*10e-5M. To be noted: read-out: ED50 (the source's name). The assay is classed as functional.
Assay [16] relates to A549. The assay is described as follows: In vitro cytotoxicity against human lung carcinoma cell line A-549 at 5.0*10e-5M. In kind it is functional. To be noted: read-out: ED50 (the source's name).
In assay [17] the test system is SK-MEL-5. Description: In vitro cytotoxicity against human melanoma, metastatic to auxiliary node (SK-MEL-5) at 2.6*10e-5M. The assay is classed as functional. Conditions: read-out: ED50 (the source's name).
Assay [18] relates to Malme-3M. The assay is described as follows: In vitro cytotoxicity against human melanoma, metastatic to lung using MTT assay (MALME-3M) at 4.7*10e-5M. In kind it is functional. To be noted: read-out: ED50 (the source's name).
Assay [19] relates to Malme-3M. Description: In vitro cytotoxicity against human melanoma, metastatic to lung using MTT assay (MALME-3M) at 5.5*10e-5M. The assay is classed as functional. To be noted: read-out: ED50 (the source's name).
Assay [20] concerns SK-MEL-5. Description: In vitro cytotoxicity against human melanoma, metastatic to auxiliary node (SK-MEL-5) at 3.2*10e-5M. The assay is classed as functional. To be noted: read-out: ED50 (the source's name).
The subject of assay [21] is HT-29. Description: In vitro cytotoxicity against human colon adenocarcinoma cell line HT-29 at 3.0*10e-5 M. In kind it is functional. Conditions: read-out: ED50 (the source's name).
Assay [22] relates to HT-29. The assay is described as follows: In vitro cytotoxicity against human colon adenocarcinoma cell line HT-29 at 1.2*10e-5M. The assay is classed as functional. Conditions: read-out: ED50 (the source's name).
Assay [23] relates to Mus musculus. Description: Percent inhibition was determined against H/1/2-NRK tumor at a dose of 150 mg/kg/day in mice. In kind it is functional.
Assay [24] deals with Mus musculus. Description: Percent inhibition was determined against K/1-NRK tumor at a dose of 75 mg/kg/day in mice. The assay is classed as functional.
The subject of assay [25] is NRK. Description: In vitro cytotoxicity expressed as % cell kill against rat transformed cell line K/1-NRK at a dose of 3.3 uM. In kind it is functional.
In assay [26] the test system is Mus musculus. The assay is described as follows: Percent inhibition was determined against K/1-NRK tumor at a dose of 150 mg/kg/day in mice. In kind it is functional.
For assay [27], the system named is NRKE. The assay is described as follows: In vitro cytotoxicity expressed as % cell kill against normal rat kidney epithelial cell (NRKE) at a dose of 3.3 uM. In kind it is functional.
Assay [28] has as its system NRK. Description: In vitro cytotoxicity expressed as % cell kill against rat transformed cell line H/1/2-NRK at a dose of 3.3 uM. The assay is classed as functional.
The subject of assay [29] is A549. The assay is described as follows: In vitro cytotoxicity against human lung carcinoma cell line A-549 at 6.1*10e-5 M. In kind it is functional. To be noted: read-out: ED50 (the source's name).
Assay [30] relates to NRKE. The assay is described as follows: In vitro cytotoxicity expressed as % cell kill against normal rat kidney epithelial cell (NRKE) at a dose of 33 uM. The assay is classed as functional.
Assay [31] is filed under the species Mus musculus. The assay is described as follows: Maximum tolerated dose (MTD) was reported. The assay is classed as functional.
Assay [32] relates to NRK. Description: In vitro cytotoxicity expressed as % cell kill against ras transformed cell line K/1-NRK at a dose of 33 uM. In kind it is functional, Rattus norvegicus.
Assay [33] deals with SK-MEL-5. The assay is described as follows: In vitro cytotoxicity against human melanoma, metastatic to auxiliary node (SK-MEL-5) at 6.3*10e-5M. The assay is classed as functional. Conditions: read-out: ED50 (the source's name).
Assay [34] has as its system MCF7. The assay is described as follows: In vitro cytotoxicity against human breast carcinoma cell line MCF-7 at 4.9*10e-5M. To be noted: read-out: ED50 (the source's name). In kind it is functional.
Assay [35] concerns NRK. Description: In vitro cytotoxicity expressed as % cell kill against rat transformed cell line H/1/2-NRK at a dose of 33 uM. The assay is classed as functional.
The test system of another assay is P388. Description: In vitro cytotoxicity against P388 cell line; 10e-7-10e-9 ug/mL. Conditions: Mus musculus, read-out: ED50 (the source's name). The assay is classed as functional.

Molecules are shown by their SMILES. ≈ marks a conversion by molar mass, not a printed value. Some results are limits rather than exact numbers.

As for `C[C@@]12CCC3[C@](C)(CC[C@]4(C)[C@@H](O)CC[C@@]34C)[C@@]1(C)Cc1nc3c(nc1C2)C(N=[N+]=[N-])[C@@]1(C)[C@@H](CCC2[C@]1(C)CC[C@]1(C)[C@@H](O)CC[C@@]21C)C3` (stereo partly specified), the EC50 in the assay on SK-MEL-5 [1] is 31 µg/mL (≈ 45.3 µM); with A549 [2] it was 22 µg/mL (≈ 32.2 µM); with Malme-3M [3] (read-out: ED50), 42 µg/mL (≈ 61.4 µM); with HT-29 [4], 35 µg/mL (≈ 51.2 µM); with MCF7 [5], 27 µg/mL (≈ 39.5 µM).
For `C[C@@]12CCC3[C@](C)(CC[C@]4(C)C(=O)CC[C@@]34C)[C@@]1(C)Cc1nc3c(nc1C2)C[C@@]1(C)[C@@](C)(CCC2[C@]1(C)CC[C@]1(C)C(=O)CC[C@@]21C)C3` (stereo partly specified), the EC50 with HT-29 [6] was 94 µg/mL (≈ 144 µM); with SK-MEL-5 [7] it was above 100 µg/mL; in the assay on A549 [8], 42 µg/mL (≈ 64.3 µM); in the assay with MCF7 [9], 46 µg/mL (≈ 70.4 µM); in the assay on Malme-3M [10] it was above 100 µg/mL.
With `CCCCCCCC[C@H]1CC[C@@]2(C)C3CC[C@@]4(C)Cc5nc6c(nc5C[C@]4(C)[C@@]3(C)CC[C@]12C)C[C@]1(C)CCC2[C@](C)(CC[C@]3(C)[C@@H](CCCCCCCC)CC[C@@]23C)[C@@]1(C)C6` (stereo partly specified), the EC50 with A549 [11], in the assay on SK-MEL-5 [7], with MCF7 [12], with Malme-3M [10] and in the assay with HT-29 [13] was above 100 µg/mL in each case.
With `C[C@@]12CCC3[C@](C)(CC[C@]4(C)C5(CC[C@@]34C)OCCO5)[C@@]1(C)Cc1nc3c(nc1C2)C[C@@]1(C)[C@@](C)(CCC2[C@]1(C)CC[C@]1(C)C4(CC[C@@]21C)OCCO4)C3` (stereo partly specified), the EC50 with HT-29 [14] amounted to 39 µg/mL (≈ 52.6 µM); in the assay with MCF7 [15] it was 37 µg/mL (≈ 49.9 µM); with A549 [16], 33 µg/mL (≈ 44.5 µM); in the assay on SK-MEL-5 [17], 17 µg/mL (≈ 22.9 µM); with Malme-3M [18], 31 µg/mL (≈ 41.8 µM).
On to `C[C@H]1CC[C@@]2(OC1)O[C@H]1C[C@@]3(C)C4CC[C@@]5(C)Cc6nc7c(nc6C[C@]5(C)C4=C(O)C(=O)[C@]3(C)[C@H]1[C@@H]2C)C[C@]1(C)CCC2C(=C(O)C(=O)[C@]3(C)[C@@H]4[C@H](C[C@@]23C)O[C@]2(CC[C@H](C)CO2)[C@H]4C)[C@@]1(C)C7` (stereo partly specified), for which the EC50 in the assay with Malme-3M [19] was 53 µg/mL (≈ 56.8 µM); with A549 [11] it was above 100 µg/mL; with MCF7 [12], above 100 µg/mL; with SK-MEL-5 [20], 28 µg/mL (≈ 30 µM); in the assay with HT-29 [21], 26 µg/mL (≈ 27.9 µM).
Take `C[C@@]12CCC3[C@](C)(CC[C@]4(C)[C@@H](O)CC[C@@]34C)[C@@]1(C)Cc1nc3c(nc1C2)C[C@@]1(C)[C@@](C)(CCC2[C@]1(C)CC[C@]1(C)[C@@H](O)CC[C@@]21C)C3` (stereo partly specified): the EC50 was found to be 7 µg/mL (≈ 10.7 µM) in the assay with HT-29 [22]; 39 µg/mL (≈ 59.4 µM) in the assay on Malme-3M [3] (read-out: ED50 (the source's name)); 35 µg/mL (≈ 53.3 µM) in the assay with A549 [29]; 36 µg/mL (≈ 54.8 µM) in the assay with SK-MEL-5 [33]; 28 µg/mL (≈ 42.6 µM) in the assay with MCF7 [34]. Further, the inhibition in vivo at 150 mg/kg/day in the assay on Mus musculus [23] is 59%; in the assay with Mus musculus [26], 51%. In the assay on Mus musculus [24], this molecule had an inhibition in vivo at 75 mg/kg/day of 28%. Further, the Cell kill in the assay with NRK [25], in the assay on NRKE [27], in the assay with NRK [28], in the assay on NRKE [30], with NRK [32] and in the assay with NRK [35] was 100% throughout. The MTD in the assay filed under Mus musculus [31] amounted to 150 mg/kg/day.
For `C[C@@H]1[C@]2(O[C@H]3C=C4C5CC[C@@]6(C)Cc7nc8c(nc7C[C@]6(C)[C@@]5(C)C[C@@H](O)[C@]4(C)[C@]31O)C[C@]1(C)CCC3C4=CC[C@@H]5[C@H](C)[C@@]6(OC[C@]45C(=O)C[C@@H]3[C@@]1(C)C8)OC(C)(C)C[C@H]6O)O[C@](C)(CO)C[C@H]2O` (stereo partly specified) [CEPHALOSATIN], the EC50 in the assay on P388 was found to be 0.001 ng/mL (≈ 1.05e-06 µM).
